Source: patent US20040253256A1, “Biological compositions and methods for treatment of prostate cancer” (priority 2003, published 2004)
Like-named read-outs stand apart in the source and are kept apart here.

Key:
human prostate cancer [1] = settings: for Number of live animals remaining in the groups after 30 days of treatment: 30 mice per group, 2CTX 45 mg/kg/day s.c.
Text: (§1) The animals used to generate the prostate cancer cells for the experiments were male nude mouse (obtainable from the Chinese Academy of Military Medical Sciences, Beijing, China) with an average weight of about 15 to 18 gram. Fresh prostate tumor cells (obtainable from the Cancer Institute, Chinese Academy of Medical Sciences, Beijing, China) were divided into sections of size 1-2 mm^3 and immediately stored in […] suspension after removal from the human patient.
The mouse were starved for 24 hours before the surgery. The animals were generally anaesthetized. The barbiturates was first diluted in saline and then injected at 0.3 to 0.4 ml per animal, or 30 mg per kg body weight, into the abdomen of the mice. Under sterile conditions, a 1 cm long opening in the body cavity was cut along the right rib of the mice for engraftment of the tumor. About 10^6 units of tumor cells (about 2 mg tumor pieces per ml culture medium) were transplanted. Afterwards, the opening was sutured and the mice were put back into the cage. The animals were allowed to grow for three to five weeks or when the tumor grows to about 1 to 2 cm^3 in size. […] The tumor was removed from a donor rat and minced aseptically in 4 ml of Hank's solution to form a cell suspension. About 10^6 units of tumor cells (about 0.2 ml cell suspension) were transplanted into a healthy batch of nude mice.
The survival time of mice after tumor injection and treatment was studied.
The biological composition comprising 10^8 cells per ml of activated and conditioned yeast cells of the strain Saccharomyces carlsbergensis Hansen strain AS2.440 was prepared by the methods described in Section 5.1 and subsections therein
The animals were prepared in a similar manner as described in Section 6.1.
The mice injected with tumor cells were kept for 2 weeks and then were divided into 4 experimental groups of ten mice per group and one control group. The four experimental groups were triplicated (i.e., using a total of 120 mice in the experimental groups). In group 2AY, the mice received 0.5 ml of the biological composition once per day. In group 2NY, the mice received 0.5 ml of the untreated yeast cells once per day. In group 2CTX, the mice were injected subcutaneously with 45 mg of cyclophosphamide (CTX) per kg body weight per day. In group 2CK1, the mice received 0.5 ml of physiological saline once per day.
The mice received the biological compositions, untreated yeast cells, CTX or saline on the same day as the tumor cells were transplanted. The mice in group 2CK2 also started receiving saline on the same day as the other four groups. The biological compositions, untreated yeast cells and saline were administered orally by a feeding tube and the CTX by subcutaneous injection for 30 consecutive days. The mice were observed over 6 months from the day of tumor inoculation and survival was recorded. The weight of the mice and the weight of the tumor were determined by standard techniques.

human prostate cancer [2] = settings: 31st day from tumor inoculation; 30 consecutive days; AY/NY 0.3 ml oral once per day, CTX 30 mg/kg/day s.c.
Text: as §1
The mouse were starved for 24 hours before the surgery. The animals were generally anaesthetized. The barbiturates was first diluted in saline and then injected at 0.3 to 0.4 ml per animal, or 30 mg per kg body weight, into the abdomen of the mice. Under sterile conditions, a 1 cm long opening in the body cavity was cut along the right rib of the mice for engraftment of the tumor. About 10^6 units of tumor cells (about 2 mg tumor pieces per ml culture medium) were transplanted. Afterwards, the opening was sutured and the mice were put back into the cage. The animals were allowed to grow for three to five weeks or when the tumor grows to about 1 to 2 cm^3 in size. […]
The mice received the biological compositions, untreated yeast cells, CTX or saline on the same day as the tumor cells were transplanted. […] The weight of the mice and the weight of the tumor were determined by standard techniques.

human prostate cancer [3] = assay: Example 6: tumor growth in nude mouse model of human prostate cancer (thiotepa comparator); type: in vivo; settings: 31st day from tumor inoculation; 30 consecutive days; AY/NY 0.3 ml oral once per day, TSPA 1.5 mg/kg/day i.v.
Experimental: The human prostate cancer sample was carefully selected before, during, and after surgery in order to ensure transplant occurred at the equivalent position in the mouse. The prostate cancer sample was obtained from patients who have not received any radiation, chemotherapy, or immune enhancement treatment.
(§2) The animals were generally anaesthetized.
In group TSPA, the mice were injected intravenously with 1.5 mg of thiotepa (TSPA) per kg body weight per day.

human prostate cancer [4] = assay: Example 7: survival time in nude mouse model of human prostate cancer (thiotepa comparator); type: in vivo; settings: for Number of live animals remaining in the groups after 30 days of treatment: 30 mice per group
Experimental: as §2
In group 2TSPA, the mice were injected intravenously with 2.2 mg of thiotepa (TSPA) per kg body weight per day.

[5] = mice that survived the 6 months observation, 2AY/2NY 0.5 ml oral daily, CTX 45 mg/kg/day s.c., 30 days
[6] = mice that survived the 6 months observation, 2AY/2NY 0.5 ml oral daily, 2TSPA 2.2 mg/kg/day i.v., 30 days

## O=P1(N(CCCl)CCCl)NCCCO1 (stereo not drawn) [CTX, cyclophosphamide]
Human prostate cancer [1]; 0 month after cessation of treatment, 2AY/2NY 0.5 ml oral daily
  Number of live animals remaining in the groups after 30 days of treatment: 30
Human prostate cancer [1]; 1 month after cessation of treatment, 2AY/2NY 0.5 ml oral daily
  Number of live animals remaining in the groups after 30 days of treatment: 30
Human prostate cancer [1]; 2NY 0.5 ml per day, 2CTX 45 mg/kg per day, 30 days
  survival after six months from injection of tumor cells: all died
Human prostate cancer [1]; 2 months after cessation of treatment, 2AY/2NY 0.5 ml oral daily
  Number of live animals remaining in the groups after 30 days of treatment: 30
Human prostate cancer [1]; 3 months after cessation of treatment, 2AY/2NY 0.5 ml oral daily
  Number of live animals remaining in the groups after 30 days of treatment: 27
Human prostate cancer [1]; 4 months after cessation of treatment, 2AY/2NY 0.5 ml oral daily
  Number of live animals remaining in the groups after 30 days of treatment: 22
Human prostate cancer [1]; 5 months after cessation of treatment, 2AY/2NY 0.5 ml oral daily
  Number of live animals remaining in the groups after 30 days of treatment: 17
Human prostate cancer [1]; 6 months after cessation of treatment, 2AY/2NY 0.5 ml oral daily
  Number of live animals remaining in the groups after 30 days of treatment: 0
Human prostate cancer [2]
  mean weight of mice and standard deviation: 16.7 ± 1.7 g
  mean weight of tumor nodules and standard deviation: 3.3 ± 1.7 g

## S=P(N1CC1)(N1CC1)N1CC1 [TSPA, thiotepa]
Human prostate cancer [1]; [5]
  mean weight of mice and standard deviation: all animals dead
  mean weight of tumor nodules and standard deviation: all animals dead
Human prostate cancer [3]
  mean weight of mice and standard deviation: 16.2 ± 1.7 g
  mean weight of tumor nodules and standard deviation: 2.4 ± 1.2 mg
Human prostate cancer [4]; 0 month after cessation of treatment, 2AY/2NY 0.5 ml oral daily, 2TSPA 2.2 mg/kg/day i.v.
  Number of live animals remaining in the groups after 30 days of treatment: 30
Human prostate cancer [4]; 1 month after cessation of treatment, 2AY/2NY 0.5 ml oral daily, 2TSPA 2.2 mg/kg/day i.v.
  Number of live animals remaining in the groups after 30 days of treatment: 30
Human prostate cancer [4]; 2NY 0.5 ml per day, 2TSPA 2.2 mg/kg per day, 30 days
  survival after six months from injection of tumor cells: all died
Human prostate cancer [4]; 2 months after cessation of treatment, 2AY/2NY 0.5 ml oral daily, 2TSPA 2.2 mg/kg/day i.v.
  Number of live animals remaining in the groups after 30 days of treatment: 30
Human prostate cancer [4]; 3 months after cessation of treatment, 2AY/2NY 0.5 ml oral daily, 2TSPA 2.2 mg/kg/day i.v.
  Number of live animals remaining in the groups after 30 days of treatment: 27
Human prostate cancer [4]; 4 months after cessation of treatment, 2AY/2NY 0.5 ml oral daily, 2TSPA 2.2 mg/kg/day i.v.
  Number of live animals remaining in the groups after 30 days of treatment: 17
Human prostate cancer [4]; 5 months after cessation of treatment, 2AY/2NY 0.5 ml oral daily, 2TSPA 2.2 mg/kg/day i.v.
  Number of live animals remaining in the groups after 30 days of treatment: 5
Human prostate cancer [4]; 6 months after cessation of treatment, 2AY/2NY 0.5 ml oral daily, 2TSPA 2.2 mg/kg/day i.v.
  Number of live animals remaining in the groups after 30 days of treatment: 0
Human prostate cancer [4]; [6]
  mean weight of mice and standard deviation: all animals dead
  mean weight of tumor nodules and standard deviation: all animals dead
